Earlier results in patent US20050169991A1, “Sustained release torsemide dosage forms” (Penwest Pharmaceuticals Co., priority 2003, published 2005).

Conditions: in vivo

SMILES: Cc1cccc(Nc2ccncc2S(=O)(=O)NC(=O)NC(C)C)c1 [Torsemide]
- half-life: 6 h
